Laboratory results as given in patent US11046649B2, “Compounds useful as inhibitors of indoleamine 2,3-dioxygenase and/or tryptophan dioxygenase” (Board of Regents, The University of Texas System, priority 2018, dated 2021).
pIC50: −log10 of the molar value.

Target: T1, IDO1 (Homo sapiens, UniProt P14902)
T1 construct: endogenous in cells; host or cells: HeLa cells (ATCC), IDO1 induced with 10 ng/mL IFNgamma
Assay: IDO1 cell-based assay
Details: HeLa cells, 10 ng/mL IFNgamma, 24 hours with test compound; N-Formyl Kynurenine and L-tryptophan quantified by RFMS

T1 sequence (P14902 whole entry): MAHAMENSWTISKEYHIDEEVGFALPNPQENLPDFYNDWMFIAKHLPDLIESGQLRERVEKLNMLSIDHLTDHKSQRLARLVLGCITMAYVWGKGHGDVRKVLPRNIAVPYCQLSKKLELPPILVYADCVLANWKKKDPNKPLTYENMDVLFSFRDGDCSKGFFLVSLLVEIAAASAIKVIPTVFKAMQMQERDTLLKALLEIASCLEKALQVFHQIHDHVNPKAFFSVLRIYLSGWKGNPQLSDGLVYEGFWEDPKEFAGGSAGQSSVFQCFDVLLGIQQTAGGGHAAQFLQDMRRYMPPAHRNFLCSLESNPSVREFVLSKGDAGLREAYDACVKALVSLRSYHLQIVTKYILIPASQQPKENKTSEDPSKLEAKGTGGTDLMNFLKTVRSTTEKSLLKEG

SMILES	pIC50
Cc1ccc(-c2ccc(NC(=O)[C@@H](C)[C@H]3[C@@H]4C[C@@H](n5cnc6cc(F)c(F)cc65)C[C@@H]43)cc2)cn1 [Example 67, (S)-2-((1R,3R,5S,6r)-3-(5,6-difluoro-1H-benzo[d]-imidazol-1-yl)-bicyclo[3.1.0]hexan-6-yl)-N-(4-(6-methylpyridin-3-yl)phenyl)propanamide]	6.58
C[C@H](C(=O)Nc1ccc(-c2cnn(CC(=O)O)c2)cc1)[C@H]1[C@@H]2C[C@@H](n3cnc4cc(F)c(F)cc43)C[C@@H]21 [Example 69, 2-(4-(4-((S)-2-((1R,3R,5S,6r)-3-(5,6-difluoro-1H-benzo[d]-imidazol-1-yl)bicyclo-[3.1.0]hexan-6-yl)-propanamido)phenyl)-1H-pyrazol-1-yl)acetic acid]	5.26
CC(C(=O)Nc1nnc(C(F)(F)F)[nH]1)[C@H]1[C@@H]2C[C@@H](Oc3ccnc4ccc(F)cc34)C[C@@H]21 (stereo partly drawn) [Example 74, 2-((1R,3s,5S,6r)-3-((6-fluoroquinolin-4-yl)oxy)-bicyclo[3.1.0]hexan-6-yl)-N-(5-(trifluoromethyl)-4H-1,2,4-triazol-3-yl)-propanamide]	6.81
CC(C(=O)Nc1ccc(C#N)nn1)[C@H]1[C@@H]2C[C@@H](Oc3ccnc4ccc(F)cc34)C[C@@H]21 (stereo partly drawn) [Example 76, N-(6-cyanopyridazin-3-yl)-2-((1R,3s,5S,6r)-3-((6-fluoroquinolin-4-yl)oxy)-bicyclo[3.1.0]hexan-6-yl)-propanamide]	8.34
CC(C(=O)Nc1nc[nH]n1)[C@H]1[C@@H]2C[C@@H](Oc3ccnc4ccc(F)cc34)C[C@@H]21 (stereo partly drawn) [Example 77, 2-((1R,3s,5S,6r)-3-((6-fluoroquinolin-4-yl)oxy)-bicyclo[3.1.0]hexan-6-yl)-N-(1H-1,2,4-triazol-3-yl)-propanamide]	6.95
C[C@H](C(=O)Nc1ccc(-c2ccc(C#N)nc2)cc1)[C@H]1[C@@H]2C[C@@H](n3cnc4cc(F)c(F)cc43)C[C@@H]21 [Example 79, (S)-N-(4-(6-cyanopyridin-3-yl)phenyl)-2-((1R,3R,5S,6r)-3-(5,6-difluoro-1H-benzo[d]-imidazol-1-yl)bicyclo-[3.1.0]hexan-6-yl)-propanamide]	6.06
Cc1nnc(-c2ccc(NC(=O)[C@@H](C)[C@H]3[C@@H]4C[C@@H](n5cnc6cc(F)c(F)cc65)C[C@@H]43)cc2)o1 [Example 81, (S)-2-((1R,3R,5S,6r)-3-(5,6-difluoro-1H-benzo[d]-imidazol-1-yl)-bicyclo[3.1.0]hexan-6-yl)-N-(4-(5-methyl-1,3,4-oxadiazol-2-yl)phenyl)-propanamide]	6.15
C[C@H](C(=O)Nc1ccc(-c2ccc(C#N)cn2)cc1)[C@H]1[C@@H]2C[C@@H](n3cnc4cc(F)c(F)cc43)C[C@@H]21 [Example 83, (S)-N-(4-(5-cyanopyridin-2-yl)phenyl)-2-((1R,3R,5S,6r)-3-(5,6-difluoro-1H-benzo[d]-imidazol-1-yl)bicyclo-[3.1.0]hexan-6-yl)-propanamide]	6.07
C[C@H](C(=O)Nc1ccc(-c2ccc(F)cn2)cc1)[C@H]1[C@@H]2C[C@@H](n3cnc4cc(F)c(F)cc43)C[C@@H]21 [Example 85, (S)-2-((1R,3R,5S,6r)-3-(5,6-difluoro-1H-benzo[d]-imidazol-1-yl)bicyclo-[3.1.0]hexan-6-yl)-N-(4-(5-fluoropyridin-2-yl)phenyl)-propanamide]	5.72
C[C@H](C(=O)Nc1ccc(-c2cnc[nH]2)cc1)[C@H]1[C@@H]2C[C@@H](n3cnc4cc(F)c(F)cc43)C[C@@H]21 [Example 90, (S)-N-(4-(1H-imidazol-5-yl)phenyl)-2-((1R,3R,5S,6r)-3-(5,6-difluoro-1H-bcnzo[d]-imidazol-1-yl)bicyclo-[3.1.0]hexan-6-yl)-propanamide]	6.26
CC(C)n1cc(-c2ccc(NC(=O)[C@@H](C)[C@H]3[C@@H]4C[C@@H](n5cnc6cc(F)c(F)cc65)C[C@@H]43)cc2)cn1 [Example 91, (S)-2-((1R,3R,5S,6r)-3-(5,6-difluoro-1H-benzo[d]-imidazol-1-yl)bicyclo-[3.1.0]hexan-6-yl)-N-(4-(1-isopropyl-1H-pyrazol-4-yl)phenyl)propanamide]	6.30
C[C@H](C(=O)Nc1ccc(-c2ccc(F)cc2)cc1)[C@H]1[C@@H]2C[C@@H](n3cnc4cc(F)c(F)cc43)C[C@@H]21 [Example 93, (S)-2-((1R,3R,5S,6r)-3-(5,6-difluoro-1H-benzo[d]-imidazol-1-yl)bicyclo-[3.1.0]hexan-6-yl)-N-(4′-fluoro-[1,1′-biphenyl]-4-yl)propanamide]	6.48
CC(C(=O)Nc1nc2c(Br)cc(Cl)cc2s1)[C@H]1[C@@H]2C[C@@H](Oc3ccnc4ccc(F)cc34)C[C@@H]21 (stereo partly drawn) [Example 95, N-(4-bromo-6-chloro-benzo[d]thiazol-2-yl)-2-((1R,3s,5S,6r)-3-((6-fluoroquinolin-4-yl)-oxy)bicyclo[3.1.0]hexan-6-yl)propanamide]	6.64
CC(C(=O)Nc1ccn(CC(F)(F)F)n1)[C@H]1[C@@H]2C[C@@H](Oc3ccnc4ccc(F)cc34)C[C@@H]21 (stereo partly drawn) [Example 105, 2-((1R,3s,5S,6r)-3-((6-fluoroquinolin-4-yl)oxy)-bicyclo[3.1.0]hexan-6-yl)-N-(1-(2,2,2-trifluoroethyl)-1H-pyrazol-3-yl)-propanamide]	7.75
CCC(C(=O)Nc1ccc(C(N)=O)cn1)[C@H]1[C@@H]2C[C@@H](Oc3ccnc4ccc(F)cc34)C[C@@H]21 (stereo partly drawn) [Example 118, 6-(2-((1R,3s,5S,6r)-3-((6-fluoroquinolin-4-yl)oxy)-bicyclo[3.1.0]hexan-6-yl)-butanamido)nicotinamide]	7.67
N#Cc1ccc(NC(=O)C(C2CC2)[C@H]2[C@@H]3C[C@@H](Oc4ccnc5ccc(F)cc45)C[C@@H]32)nn1 (stereo partly drawn) [Example 124, N-(6-cyanopyridazin-3-yl)-2-cyclopropyl-2-((1R,3s,5S,6r)-3-((6-fluoroquinolin-4-yl)oxy)-bicyclo[3.1.0]hexan-6-yl)acetamide]	8.08

Continued by rising pIC50, values first:

pIC50	SMILES
5.20	O=C(O)C(C1CC1)[C@H]1[C@@H]2C[C@@H](Oc3ccnc4ccc(F)cc34)C[C@@H]21 (stereo partly drawn) [Example 127, 2-cyclopropyl-2-((1R,3s,5S,6r)-3-((6-fluoroquinolin-4-yl)oxy)-bicyclo[3.1.0]hexan-6-yl)acetic acid]
5.94	Cc1ncc(-c2ccc(NC(=O)[C@@H](C)[C@H]3[C@@H]4C[C@@H](n5cnc6cc(F)c(F)cc65)C[C@@H]43)cc2)cn1 [Example 66, (S)-2-((1R,3R,5S,6r)-3-(5,6-difluoro-1H-benzo[d]-imidazol-1-yl)bicyclo-[3.1.0]hexan-6-yl)-N-(4-(2-methylpyrimidin-5-yl)-phenyl)propanamide]
5.96	CC(C(=O)NC1CCN(C(=O)OC(C)(C)C)CC1)[C@H]1[C@@H]2C[C@@H](Oc3ccnc4ccc(F)cc34)C[C@@H]21 (stereo partly drawn) [Example 94, tert-butyl 4-(2-((1R,3s,5S,6r)-3-((6-fluoroquinolin-4-yl)oxy)-bicyclo[3.1.0]hexan-6-yl)-propanamido)piperidine-1-carboxylate]
6.25	C[C@H](C(=O)Nc1ccc(-c2ccc(C(F)(F)F)nc2)cc1)[C@H]1[C@@H]2C[C@@H](n3cnc4cc(F)c(F)cc43)C[C@@H]21 [Example 86, (S)-2-((1R,3R,5S,6r)-3-(5,6-difluoro-1H-benzo[d]-imidazol-1-yl)bicyclo-[3.1.0]hexan-6-yl)-N-(4-(6-(trifluoromethyl)pyridin-3-yl)phenyl)propanamide]
6.62	Cc1nnc(-c2ccc(NC(=O)[C@@H](C)[C@H]3[C@@H]4C[C@@H](n5cnc6cc(F)c(F)cc65)C[C@@H]43)cc2)s1 [Example 70, (S)-2-((1R,3R,5S,6r)-3-(5,6-difluoro-1H-benzo[d]-imidazol-1-yl)bicyclo-[3.1.0]hexan-6-yl)-N-(4-(5-methyl-1,3,4-thiadiazol-2-yl)phenyl)propanamide]
7.34	CC(C(=O)NC12CC(c3ccc(F)cc3)(C1)C2)[C@H]1[C@@H]2C[C@@H](Oc3ccnc4ccc(F)cc34)C[C@@H]21 (stereo partly drawn) [Example 100, N-(3-(4-fluorophenyl)-bicyclo[1.1.1]pentan-1-yl)-2-((1R,3s,5S,6r)-3-((6-fluoroquinolin-4-yl)-oxy)bicyclo[3.1.0]hexan-6-yl)propanamide]
8.04	CC(C(=O)Nc1nc2ccccc2[nH]1)[C@H]1[C@@H]2C[C@@H](Oc3ccnc4ccc(F)cc34)C[C@@H]21 (stereo partly drawn) [Example 107, N-(1H-benzo[d]imidazol-2-yl)-2-((1R,3s,5S,6r)-3-((6-fluoroquinolin-4-yl)oxy)-bicyclo[3.1.0]hexan-6-yl)propanamide]
8.16	CCC(C(=O)Nc1ccc(-n2cncn2)cn1)[C@H]1[C@@H]2C[C@@H](Oc3ccnc4ccc(F)cc34)C[C@@H]21 (stereo partly drawn) [Example 119, N-(5-(1H-1,2,4-triazol-1-yl)pyridin-2-yl)-2-((1R,3s,5S,6r)-3-((6-fluoro-quinolin-4-yl)oxy)-bicyclo[3.1.0]hexan-6-yl)-butanamide]
8.52	CC(C(=O)Nc1cc2ccccn2n1)[C@H]1[C@@H]2C[C@@H](Oc3ccnc4ccc(F)cc34)C[C@@H]21 (stereo partly drawn) [Example 87, 2-((1R,3s,5S,6r)-3-((6-fluoroquinolin-4-yl)oxy)-bicyclo[3.1.0]hexan-6-yl)-N-(pyrazolo[1,5-a]pyridin-2-yl)propanamide]
8.78	N#Cc1ccc(NC(=O)C(C2CC2)[C@H]2[C@@H]3C[C@@H](Oc4ccnc5ccc(F)cc45)C[C@@H]32)nc1 (stereo partly drawn) [Example 121, N-(5-cyanopyridin-2-yl)-2-cyclopropyl-2-((1R,3s,5S,6r)-3-((6-fluoroquinolin-4-yl)-oxy)bicyclo[3.1.0]hexan-6-yl)acetamide]
8.84	CCC(C(=O)Nc1cnc(C)cn1)[C@H]1[C@@H]2C[C@@H](Oc3ccnc4ccc(F)cc34)C[C@@H]21 (stereo partly drawn) [Example 120, 2-((1R,3s,5S,6r)-3-((6-fluoroquinolin-4-yl)oxy)-bicyclo[3.1.0]hexan-6-yl)-N-(5-methylpyrazin-2-yl)-butanamide]
